Article PMC5362474 (Oncotarget, 2017)

What was measured:
[1] = biological target: T1, recombinant human c-Met residues 974-end (Homo sapiens, UniProt P08581); assay: Inhibition of c-Met kinase (TR-FRET); format: biochemical; conditions: for inhibition at 0.19 µM / inhibition at 0.39 µM / inhibition at 0.78 µM / inhibition at 1.56 µM / inhibition at 3.12 µM / inhibition at 6.25 µM / inhibition at 12.5 µM / inhibition at 25 µM / inhibition at 50 µM / inhibition at 100 µM: read-out: Inhibitory rate on c-Met kinase; for inhibition at 12.5 µM: 12.50 μM; for IC50: TR-FRET, read-out: IC50 against c-Met kinase; for c-Met Inhibition rate (%): concentration not given
T1 construct: recombinant human c-Met residues 974-end; 6His; purchased Millipore
T1 sequence (P08581 974-1390 limits assumed): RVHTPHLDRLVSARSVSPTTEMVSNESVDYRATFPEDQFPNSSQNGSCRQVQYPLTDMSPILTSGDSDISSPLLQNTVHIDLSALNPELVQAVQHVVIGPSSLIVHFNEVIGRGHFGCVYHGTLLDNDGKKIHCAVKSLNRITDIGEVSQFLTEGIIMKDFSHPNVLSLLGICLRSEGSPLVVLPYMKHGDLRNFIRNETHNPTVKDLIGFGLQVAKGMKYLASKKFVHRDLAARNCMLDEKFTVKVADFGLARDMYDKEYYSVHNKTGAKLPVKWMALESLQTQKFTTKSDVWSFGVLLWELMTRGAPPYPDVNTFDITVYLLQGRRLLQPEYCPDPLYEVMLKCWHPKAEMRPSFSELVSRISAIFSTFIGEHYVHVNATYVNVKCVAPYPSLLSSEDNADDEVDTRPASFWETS
Protocol: The inhibitions of c-Met kinase were investigated referred to a published literature. The IC50 values were detected using TR-FRET. 50 nM 6 His-tagged recombinant human c-Met residues 974-end (Millipore) was cultured in medium containing 2.5 m mol/L MnCl2, 10 m mol/L MgCl2, 20 m mol/L Tris, 2 m mol/L DTT and 0.01% Tween 20 with 5 m mol/L ATP and 200 n mol/L 5FAM-KKK -[…]-NH2 with 25 μL at room temperature for 60 min. Compounds were made up to 100 μM solutions and were tested with 10 concentration gradients by two times dilutions. Each group was tested for three times Reactions were termined by IMAP stop solution. Plates were incubated for an overnight and analyzed by using AiphaQuest.

[2] = test system: HepG2 cells; assay: MTT proliferation assay on HepG2 cells; format: cell-based; conditions: Homo sapiens
Protocol: (§1) MTT assay was then applied at 24 h, 48 h. […] However, all the compounds were active against Bel-7402, HepG2, A549 and HeLa cells to some extent. […] Before we began to design these compounds, we carefully studied these references. […] Hu C T, et al., Wang SY, et al. and Xie B, et al. reported that HepG2 was inhibited by inhibiting c-Met/HGF signaling pathway. […] Further research works on activities are currently under investigation and will be reported in due course. […] Proliferation of cells was evaluated by MTT assay. Cells were inoculated at 1.0 × 10^4 cells/mL with 200 μL in each well of 96-well plate and allowed to adhere to the plates overnight. […] After removal of the medium, cells were treated with 150 μL of DMSO and shaken for 15 min to completely dissolve the formazan crystals. The absorbances at 590 nm of the dissolved solutions were detected using a SpectraMAX190 microplate reader (Molecular Devices, USA).

[3] = test system: Hela cells; assay: MTT proliferation assay on HeLa cells; format: cell-based; conditions: Homo sapiens
Protocol: as §1

[4] = test system: A549 cells; assay: MTT proliferation assay on A549 cells; format: cell-based; conditions: Homo sapiens
Protocol: as §1

[5] = test system: Bel-7402 cells; assay: MTT proliferation assay on Bel-7402 cells; format: cell-based; conditions: Homo sapiens
Protocol: as §1

| SMILES | inhibition at 0.19 µM [1] [%] | inhibition at 0.39 µM [1] [%] | inhibition at 0.78 µM [1] [%] | inhibition at 1.56 µM [1] [%] | inhibition at 3.12 µM [1] [%] | inhibition at 6.25 µM [1] [%] | inhibition at 12.5 µM [1] [%] | inhibition at 25 µM [1] [%] | inhibition at 50 µM [1] [%] | inhibition at 100 µM [1] [%] | IC50 [1] [µM] | c-Met Inhibition rate (%) [1] [%] | IC50 ([2]; 24 h) [µM] | IC50 ([2]; 48 h) [µM] | IC50 ([3]; 24 h) [µM] | IC50 ([3]; 48 h) [µM] | IC50 ([4]; 24 h) [µM] | IC50 ([4]; 48 h) [µM] | IC50 ([5]; 24 h) [µM] | IC50 ([5]; 48 h) [µM] |
| --- | --- | --- | --- | --- | --- | --- | --- | --- | --- | --- | --- | --- | --- | --- | --- | --- | --- | --- | --- | --- |
| CC(C)=C1C/C=C(\C)CC/C=C(\C)CC1OC(=O)/C=C\c1ccccc1 (centres unmarked) [Compound 3e, (Z)-(3E,7E)-3,7-dimethyl-10-(propan-2-ylidene)cyclodeca-3,7-dien-1-yl-3-phenylacrylate] | 28.28 ± 0.22 | 42.75 ± 0.35 | 48.01 ± 0.39 | 61.4 ± 0.64 | 67.5 ± 0.77 | 70.31 ± 0.59 | 75.7 ± 0.78 | 80 ± 0.91 | 85.3 ± 0.87 | 88.4 ± 0.99 | 0.87 | 41 | 72.48 ± 0.64 | 69.98 ± 0.68 | 86.55 ± 0.8 | 88.24 ± 0.84 | 90.11 ± 0.75 | 88.21 ± 0.81 | 75.9 ± 0.81 | 79.2 ± 0.89 |
| CC(C)=C1C/C=C(\C)CC/C=C(\C)CC1O (centres unmarked) [Compound 2, (3E,7E)-3,7-dimethyl-10-(propan-2-ylidene)cyclodeca-3,7-dienol] | 20 ± 0.27 | 34.9 ± 0.37 | 43.1 ± 0.52 | 55.2 ± 0.61 | 59.88 ± 0.53 | 64.16 ± 0.64 | 69.98 ± 0.59 | 74.21 ± 0.69 | 78.2 ± 0.88 | 81.2 ± 0.94 | 1.77 | 23 | 155 ± 1.75 | 161.5 ± 1.32 | 157.3 ± 1.47 | 163 ± 1.73 | 177 ± 1.8 | 185 ± 1.99 | 167 ± 1.91 | 166 ± 1.83 |
| CC(C)=C1C/C=C(\C)CC/C=C(\C)CC1=O [Compound 1, germacrone, reference compound] | 23.4 ± 0.33 | 39.1 ± 0.45 | 47 ± 0.55 | 58.8 ± 0.61 | 65.4 ± 0.67 | 69.2 ± 0.77 | 73.7 ± 0.89 | 77.5 ± 0.97 | 82.1 ± 1.21 | 88 ± 1.01 | 1.15 | 27 | 170 ± 2.07 | 175 ± 1.88 | 160.7 ± 1.54 | 168 ± 1.81 | 180 ± 2.14 | 177 ± 1.87 | 173.5 ± 1.53 | 177 ± 1.97 |
| CC(=O)OC1C/C(C)=C/CC/C(C)=C/CC1=C(C)C (centres unmarked) [Compound 3a, (3E,7E)-3,7-dimethyl-10-(propan-2-ylidene)cyclodeca-3,7-dien-1-yl-acetate] | 26.3 ± 0.37 | 40 ± 0.43 | 47.2 ± 0.57 | 58.5 ± 0.69 | 65 ± 0.74 | 69 ± 0.76 | 74.6 ± 0.81 | 79.3 ± 0.85 | 84.3 ± 0.93 | 86.9 ± 0.97 | 1.06 | 31 | 147.7 ± 1.47 | 152 ± 1.71 | 149.3 ± 1.33 | 153 ± 1.65 | 162.2 ± 1.55 | 169 ± 1.74 | 157.3 ± 1.33 | 166.2 ± 1.51 |
| CC(C)=C1C/C=C(\C)CC/C=C(\C)CC1OC(=O)c1cccc(C)c1 (centres unmarked) [Compound 3c, (3E,7E)-3,7-dimethyl-10-(propan-2-ylidene)cyclodeca-3,7-dien-1-yl-3-methylbenzoate] | 33.8 ± 0.45 | 42.6 ± 0.51 | 48 ± 0.62 | 59.6 ± 0.66 | 64.5 ± 0.73 | 70 ± 0.81 | 73.79 ± 0.69 | 78.9 ± 0.87 | 83.7 ± 0.95 | 87.4 ± 1.2 | 0.83 | 47 | 70.2 ± 0.87 | 67.84 ± 0.48 | 84.1 ± 0.71 | 82.54 ± 0.64 | 88.52 ± 0.53 | 87.2 ± 0.94 | 75.5 ± 1.05 | 78.55 ± 0.51 |
| CC(C)=C1C/C=C(\C)CC/C=C(\C)CC1OC(=O)c1ccc(C)cc1 (centres unmarked) [Compound 3b, (3E,7E)-3,7-dimethyl-10-(propan-2-ylidene)cyclodeca-3,7-dien-1-yl-4-methylbenzoate] | 35.6 ± 0.44 | 46.9 ± 0.51 | 54.47 ± 0.47 | 63.4 ± 0.66 | 67.05 ± 0.59 | 72.56 ± 0.67 | 77.8 ± 0.81 | 81.24 ± 0.77 | 86 ± 0.93 | 88.8 ± 1.11 | 0.56 | 56 | 68.2 ± 0.69 | 71.5 ± 0.82 | 83.64 ± 0.73 | 83.78 ± 0.76 | 84.85 ± 0.71 | 81.9 ± 0.88 | 75.9 ± 0.96 | 74.2 ± 0.83 |
| CC(C)=C1C/C=C(\C)CC/C=C(\C)CC1OC(=O)c1ccc(C(F)(F)F)cc1 (centres unmarked) [Compound 3d, (3E,7E)-3,7-dimethyl-10-(propan-2-ylidene)cyclodeca-3,7-dien-1-yl-4-(trifluoromethyl)benzoate] | 31.56 ± 0.27 | 40.88 ± 0.35 | 47.08 ± 0.44 | 59.03 ± 0.57 | 64.22 ± 0.59 | 69 ± 0.74 | 75.5 ± 0.88 | 80.6 ± 0.84 | 85.4 ± 0.96 | 87.7 ± 0.95 | 0.92 | 38 | 74.7 ± 0.99 | 78.85 ± 0.77 | 91.25 ± 0.87 | 93.31 ± 0.9 | 93.48 ± 0.79 | 95.9 ± 0.97 | 80.1 ± 1.19 | 77.56 ± 0.77 |
